# Assay results taken from US10227357B2, “Compounds and methods for kinase modulation, and indications therefor” (Plexxikon Inc., priority 2012, dated 2019).
# Columns and labels:
# c-kit kinase = target: T1, c-kit kinase (Homo sapiens, UniProt P10721); test: c-Kit biochemical assay, AlphaScreen, 10 μM ATP; details: c-kit biochemical inhibitory activity; read-out: Biochemical activity (IC50 μM) Kit
# T1 construct: The c-kit (or kinase domain thereof) is an active kinase in AlphaScreen; poly-Histidine tag (in-house protein only) (cleaved yes); host or cells: E. coli BL21(DE3)RIL, co-expressed with PTP1B
# Procedure, shortened: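 His-tagged c-Kit expressed in E. coli with co-expressed PTP1B (dephosphorylated), tag removed; 0.1 ng per reaction with biotinylated-peptide substrate in 50 mM HEPES pH 7.2, 5 mM MgCl2, 5 mM MnCl2, 5% DMSO, 10 μM ATP, 1 h at room temperature. Phosphorylation detected by AlphaScreen (streptavidin donor, PY20 acceptor beads); IC50 from 8-point 1:3 dilution series.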
# c-kit mutant D816V = target: T2, c-kit mutant D816V (Homo sapiens, UniProt P10721, D816V/DEL694-753); test: c-Kit mutant D816V biochemical assay, AlphaScreen; details: c-kit D816V biochemical inhibitory activity; read-out: Biochemical activity (IC50 μM) Kit D816V
# T2 construct: residues 551-934, kinase insertion domain residues 694-753 deleted; 6x-histidine (N); made in house; host or cells: E. coli Arctic Express (DE3) RIL (Stratagene)
# Procedure, shortened: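 Eight-point, threefold compound series incubated 30 min at room temperature with E. coli-produced D816V kinase, 10 μM ATP, Mg2+/Mn2+ HEPES buffer pH 7.2 and 5% DMSO. After EDTA stop, streptavidin and anti-phosphotyrosine (PY20) AlphaScreen beads gave the read-out, and IC50 was fitted from the concentration–signal curve.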
# T1 sequence (P10721 26-976): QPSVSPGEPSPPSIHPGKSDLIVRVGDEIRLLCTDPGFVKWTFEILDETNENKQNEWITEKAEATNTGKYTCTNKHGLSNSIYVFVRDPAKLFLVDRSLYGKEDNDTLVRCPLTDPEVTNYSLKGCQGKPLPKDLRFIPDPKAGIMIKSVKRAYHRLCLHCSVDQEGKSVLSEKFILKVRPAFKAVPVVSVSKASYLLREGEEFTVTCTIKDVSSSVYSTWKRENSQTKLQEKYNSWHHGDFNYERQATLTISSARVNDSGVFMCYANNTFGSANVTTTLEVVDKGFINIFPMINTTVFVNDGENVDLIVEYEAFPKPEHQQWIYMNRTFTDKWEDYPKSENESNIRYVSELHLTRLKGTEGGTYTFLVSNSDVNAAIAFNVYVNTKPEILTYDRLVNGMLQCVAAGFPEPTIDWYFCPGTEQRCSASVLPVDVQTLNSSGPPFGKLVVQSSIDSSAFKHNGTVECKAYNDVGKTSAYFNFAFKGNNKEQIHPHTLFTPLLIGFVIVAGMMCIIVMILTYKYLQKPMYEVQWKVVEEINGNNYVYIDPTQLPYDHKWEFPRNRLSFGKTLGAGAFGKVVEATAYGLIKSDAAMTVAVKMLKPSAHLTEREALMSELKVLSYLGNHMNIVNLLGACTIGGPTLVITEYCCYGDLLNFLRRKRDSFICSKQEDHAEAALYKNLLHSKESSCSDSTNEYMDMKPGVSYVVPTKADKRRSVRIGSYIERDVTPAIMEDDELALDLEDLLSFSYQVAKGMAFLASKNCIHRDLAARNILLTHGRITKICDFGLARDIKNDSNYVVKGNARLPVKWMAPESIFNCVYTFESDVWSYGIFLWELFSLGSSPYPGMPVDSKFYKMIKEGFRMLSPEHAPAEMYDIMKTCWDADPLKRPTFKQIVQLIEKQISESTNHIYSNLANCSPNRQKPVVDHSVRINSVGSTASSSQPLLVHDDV
# T2 sequence (P10721 with tags, fused parts or gaps DEL694-753/D816V): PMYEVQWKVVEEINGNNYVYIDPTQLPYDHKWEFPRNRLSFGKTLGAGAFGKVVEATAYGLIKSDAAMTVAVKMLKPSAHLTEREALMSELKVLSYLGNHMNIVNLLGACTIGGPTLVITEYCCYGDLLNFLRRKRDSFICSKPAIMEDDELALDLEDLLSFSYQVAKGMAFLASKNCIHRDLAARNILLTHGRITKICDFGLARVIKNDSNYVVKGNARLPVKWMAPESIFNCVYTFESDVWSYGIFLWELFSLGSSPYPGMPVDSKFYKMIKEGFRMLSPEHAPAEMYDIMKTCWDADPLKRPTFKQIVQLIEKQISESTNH
Compound,IC50 (c-kit kinase) [µM],IC50 (c-kit mutant D816V) [µM]
"COc1cccc([C@H](C)NC(=O)N2CCN(c3ncnc4[nH]c(-c5ccc(F)cc5)cc34)CC2)c1 [P-0144, 4-[6-(4-fluorophenyl)-7H-pyrrolo[2,3-d]pyrimidin-4-yl]-N-[(1S)-1-(3-methoxyphenyl)ethyl]piperazine-1-carboxamide]",1 to 10,0.0001 to 1
"CCOc1cccc(-c2[nH]c(C3CCN(c4ncnc5[nH]c(-c6ccnc(OC)c6)cc45)CC3)nc2C)c1 [P-0714, 4-[4-[5-(3-ethoxyphenyl)-4-methyl-1H-imidazol-2-yl]-1-piperidyl]-6-(2-methoxy-4-pyridyl)-7H-pyrrolo[2,3-d]pyrimidine]",10 to 200,0.0001 to 1
"Cc1cc2c(-c3ccc(NS(=O)(=O)c4ccc(C)s4)cc3)ncnc2[nH]1 [P-0313, 5-methyl-N-[4-(6-methyl-7H-pyrrolo[2,3-d]pyrimidin-4-yl)phenyl]thiophene-2-sulfonamide]",1 to 10,1 to 10
"Cc1cc2c(-c3ccc(NS(=O)(=O)c4cccc(Cl)c4F)cc3F)ncnc2[nH]1 [P-0364, 3-chloro-2-fluoro-N-[3-fluoro-4-(6-methyl-7H-pyrrolo[2,3-d]pyrimidin-4-yl)phenyl]benzenesulfonamide]",10 to 200,10 to 200
"Cc1cc2c(-c3ccc(NS(=O)(=O)c4cccc(F)c4)c(F)c3)ncnc2[nH]1 [P-0347, 3-fluoro-N-[2-fluoro-4-(6-methyl-7H-pyrrolo[2,3-d]pyrimidin-4-yl)phenyl]benzenesulfonamide]",1 to 10,1 to 10
"C[C@H](NC(=O)N1CCN(c2ncnc3[nH]c(-c4ccncc4)cc23)C[C@H]1C)c1ccc(F)cc1 [P-0058, (2R)-N-[(1S)-1-(4-fluorophenyl)ethyl]-2-methyl-4-[6-(4-pyridyl)-7H-pyrrolo[2,3-d]pyrimidin-4-yl]piperazine-1-carboxamide]",1 to 10,0.0001 to 1
"NS(=O)(=O)c1ccc(-c2cc3c(N4CCN(C(=O)Nc5ccc(OC(F)(F)F)cc5)CC4)ncnc3[nH]2)cc1 [P-0100, 4-[6-(4-sulfamoylphenyl)-7H-pyrrolo[2,3-d]pyrimidin-4-yl]-N-[4-(trifluoromethoxy)phenyl]piperazine-1-carboxamide]",0.0001 to 1,1 to 10
"CCCS(=O)(=O)Nc1ccc(-c2ncnc3cc(OC)c(OC)cc23)c(F)c1 [P-0269, N-[4-(6,7-dimethoxyquinazolin-4-yl)-3-fluoro-phenyl]propane-1-sulfonamide]",10 to 200,0.0001 to 1
"COc1ccc(C(=O)N2CCN(c3ncnc4[nH]ccc34)CC2)cc1 [P-0234, (4-methoxyphenyl)-[4-(7H-pyrrolo[2,3-d]pyrimidin-4-yl)piperazin-1-yl]methanone]",10 to 200,10 to 200
"COc1ccc(S(=O)(=O)Nc2ccc(-c3ncnc4[nH]nc(C)c34)cc2)cc1 [P-0444, 4-methoxy-N-[4-(3-methyl-1H-pyrazolo[3,4-d]pyrimidin-4-yl)phenyl]benzenesulfonamide]",1 to 10,0.0001 to 1
"Cc1nn(C)cc1-c1cc2ncnc(C3=CCN(C(=O)Nc4ccc(Cl)cc4)CC3)c2s1 [P-0612, N-(4-chlorophenyl)-4-[6-(1,3-dimethylpyrazol-4-yl)thieno[3,2-d]pyrimidin-4-yl]-3,6-dihydro-2H-pyridine-1-carboxamide]",0.0001 to 1,0.0001 to 1
"COc1cc(-c2cc3c(C4=CCC(NS(=O)(=O)c5ccc(OC(F)(F)F)cc5)CC4)ncnc3[nH]2)ccn1 (stereo not drawn) [P-0654, N-[4-[6-(2-methoxy-4-pyridyl)-7H-pyrrolo[2,3-d]pyrimidin-4-yl]cyclohex-3-en-1-yl]-4-(trifluoromethoxy)benzenesulfonamide]",10 to 200,0.0001 to 1
"Cc1ccc(S(=O)(=O)Nc2ccc(-c3ncnc4cc(C5CCNCC5)sc34)cc2)cc1 [P-0592, 4-methyl-N-[4-[6-(4-piperidyl)thieno[3,2-d]pyrimidin-4-yl]phenyl]benzenesulfonamide]",10 to 200,0.0001 to 1
"Cn1cc(-c2cc3c(N4CCN(C(=O)Nc5ccc(OC(F)F)cc5)CC4)ncnc3[nH]2)cn1 [P-0091, N-[4-(difluoromethoxy)phenyl]-4-[6-(1-methylpyrazol-4-yl)-7H-pyrrolo[2,3-d]pyrimidin-4-yl]piperazine-1-carboxamide]",0.0001 to 1,0.0001 to 1
"C[C@H](NC(=O)N1CCN(c2ncnc3[nH]c(-c4ccc(F)cc4)cc23)C[C@H]1C)c1cccc(OC(F)F)c1 [P-0014, (2R)-N-[(1S)-1-[3-(difluoromethoxy)phenyl]ethyl]-4-[6-(4-fluorophenyl)-7H-pyrrolo[2,3-d]pyrimidin-4-yl]-2-methyl-piperazine-1-carboxamide]",1 to 10,0.0001 to 1
"COc1ncc(-c2cc3c(N4CCN(C(=O)NCc5ccc(F)cc5)CC4)ncnc3[nH]2)cn1 [P-0106, N-[(4-fluorophenyl)methyl]-4-[6-(2-methoxypyrimidin-5-yl)-7H-pyrrolo[2,3-d]pyrimidin-4-yl]piperazine-1-carboxamide]",1 to 10,1 to 10
"CCc1ccc(S(=O)(=O)NC2CCN(c3ncnc4[nH]c(C)cc34)CC2)s1 [P-0730, 5-ethyl-N-[1-(6-methyl-7H-pyrrolo[2,3-d]pyrimidin-4-yl)-4-piperidyl]thiophene-2-sulfonamide]",0.0001 to 1,0.0001 to 1
"Cc1ccc(S(=O)(=O)Nc2ccc(-c3ncnc4[nH]c(C)cc34)c(F)c2)cn1 [P-0286, N-[3-fluoro-4-(6-methyl-7H-pyrrolo[2,3-d]pyrimidin-4-yl)phenyl]-6-methyl-pyridine-3-sulfonamide]",1 to 10,0.0001 to 1
"COc1cc(-c2cc3ncnc(N4CCN(C(=O)N[C@@H](C)c5cccc(Cl)c5)C(C)(C)C4)c3s2)ccn1 [P-0556, N-[(1S)-1-(3-chlorophenyl)ethyl]-4-[6-(2-methoxy-4-pyridyl)thieno[3,2-d]pyrimidin-4-yl]-2,2-dimethyl-piperazine-1-carboxamide]",1 to 10,0.0001 to 1
"COc1cc2ncnc(-c3ccc(S(=O)(=O)Nc4ccc(Cl)cc4)cc3F)c2cc1OCCCN1CCOCC1 [P-0247, N-(4-chlorophenyl)-3-fluoro-4-[7-methoxy-6-(3-morpholinopropoxy)quinazolin-4-yl]benzenesulfonamide]",1 to 10,0.0001 to 1
"Cc1ccc(S(=O)(=O)Nc2ccc(-c3ncnc4[nH]c(C)cc34)cc2)cc1 [P-0390, 4-methyl-N-[4-(6-methyl-7H-pyrrolo[2,3-d]pyrimidin-4-yl)phenyl]benzenesulfonamide]",1 to 10,0.0001 to 1
"Cc1nn(C)cc1-c1cc2ncnc(C3CCNCC3)c2s1 [P-0607, 6-(1,3-dimethylpyrazol-4-yl)-4-(4-piperidyl)thieno[3,2-d]pyrimidine]",1 to 10,10 to 200
"O=S(=O)(Nc1ccc(-c2ncnc3[nH]c(C4CCCC4)cc23)cc1)c1ccc(F)cc1 [P-0290, N-[4-(6-cyclopentyl-7H-pyrrolo[2,3-d]pyrimidin-4-yl)phenyl]-4-fluoro-benzenesulfonamide]",1 to 10,0.0001 to 1
"COc1cc2ncnc(-c3ccc(NS(=O)(=O)c4ccc(Cl)cc4)cc3F)c2cc1OCCCN1CCOCC1 [P-0250, 4-chloro-N-[3-fluoro-4-[7-methoxy-6-(3-morpholinopropoxy)quinazolin-4-yl]phenyl]benzenesulfonamide]",0.0001 to 1,0.0001 to 1
